Assay results: US20240050428A1 (Cullgen (Shanghai), Inc., priority 2020, published 2024)
Like-named read-outs stand apart in the source and are kept apart here.

What was measured:
MV4;11 cells = assay: Cell viability assay (CellTiter-Glo) in MV4;11 cells, alone or with gilteritinib; format: cell-based; details: Homo sapiens, MV4;11 cells, three days, CellTiter-Glo, read-out: MV4
MOLM-13 cells = assay: Cell viability assay (CellTiter-Glo) in MOLM-13 cells, alone or with gilteritinib; format: cell-based; details: Homo sapiens, MOLM-13 cells, three days, CellTiter-Glo
[1] = MV4-11, 72 h, compound alone (without gilteritinib), 11 IC50
[2] = MV4-11, 72 h, compound with gilteritinib 10 nM, 11 IC50 gilteritinib
[3] = MOLM-13, 72 h, compound alone (without gilteritinib), read-out: MOLM-13 IC50
[4] = MOLM-13, 72 h, compound with gilteritinib 20 nM, read-out: MOLM-13 IC50 gilteritinib
[5] = 72 h, compound alone (without gilteritinib), 11 IC50
[6] = 72 h, compound with gilteritinib 10 nM, 11 IC50 gilteritinib
[7] = 72 h, compound alone (without gilteritinib), read-out: MOLM-13 IC50
[8] = 72 h, compound with gilteritinib 20 nM, read-out: MOLM-13 IC50 gilteritinib

SMILES | IC50 (MV4;11 cells; [1]) | IC50 (MV4;11 cells; [2]) | IC50 (MOLM-13 cells; [3]) | IC50 (MOLM-13 cells; [4]) | IC50 (MV4;11 cells; [5]) | IC50 (MV4;11 cells; [6]) | IC50 (MOLM-13 cells; [7]) | IC50 (MOLM-13 cells; [8])
O=C1CCC(N2C(=O)c3ccc(NCCCCCCn4ccc(-c5cnc6ccccc6n5)n4)cc3C2=O)C(=O)N1 (centres unmarked) [GS-536, 2-(2,6-Dioxopiperidin-3-yl)-5-((6-(3-(quinoxalin-2-yl)-1H-pyrazol-1-yl)hexyl)amino)isoindoline-1,3-dione] | > 1000 nM | 100 to 1000 nM | > 1000 nM | 10 to 100 nM | – | – | – | –
O=C1CCC(N2C(=O)c3ccc(NCCCCCCn4nccc4-c4cnc5ccccc5n4)cc3C2=O)C(=O)N1 (centres unmarked) [GS-537, 2-(2,6-dioxopiperidin-3-yl)-5-((6-(5-(quinoxalin-2-yl)-1H-pyrazol-1-yl)hexyl)amino)isoindoline-1,3-dione] | 100 to 1000 nM | 100 to 1000 nM | > 1000 nM | 10 to 100 nM | – | – | – | –
O=C1CCC(N2C(=O)c3ccc(NCC4CC(n5cc(-c6cnc7ccccc7n6)cn5)C4)cc3C2=O)C(=O)N1 (centres unmarked) [GS-538, 2-(2,6-Dioxopiperidin-3-yl)-5-(((3-(4-(quinoxalin-2-yl)-1H-pyrazol-1-yl)cyclobutyl)methyl)amino)isoindoline-1,3-dione] | 100 to 1000 nM | 10 to 100 nM | 100 to 1000 nM | 10 to 100 nM | – | – | – | –
O=C1CCC(N2C(=O)c3ccc(NCC4CC5(C4)CC(n4cc(-c6cnc7ccccc7n6)cn4)C5)cc3C2=O)C(=O)N1 (centres unmarked) [GS-539, 2-(2,6-Dioxopiperidin-3-yl)-5-(((6-(4-(quinoxalin-2-yl)-1H-pyrazol-1-yl)spiro[3.3]heptan-2-yl)methyl)amino)isoindoline-1,3-dione] | > 1000 nM | 100 to 1000 nM | > 1000 nM | 100 to 1000 nM | – | – | – | –
Cc1nn(CCCCCCNc2ccc3c(c2)C(=O)N(C2CCC(=O)NC2=O)C3=O)c(C)c1-c1nc2ccccc2nc1C(F)(F)F (centres unmarked) [GS-540, 5-((6-(3,5-Dimethyl-4-(3-(trifluoromethyl)quinoxalin-2-yl)-1H-pyrazol-1-yl)hexyl)amino)-2-(2,6-dioxopiperidin-3-yl)isoindoline-1,3-dione] | > 1000 nM | 10 to 100 nM | > 1000 nM | 10 to 100 nM | – | – | – | –
O=C1CCC(N2C(=O)c3ccc(NCCCCCCn4cc(-c5cnc6ccc(C7CCNCC7)cc6n5)cn4)cc3C2=O)C(=O)N1 (centres unmarked) [GS-541, 2-(2,6-Dioxopiperidin-3-yl)-5-((6-(4-(7-(piperidin-4-yl)quinoxalin-2-yl)-1H-pyrazol-1-yl)hexyl)amino)isoindoline-1,3-dione] | 100 to 1000 nM | < 10 nM | 10 to 100 nM | < 10 nM | – | – | – | –
O=C1CCC(N2C(=O)c3ccc(NCCCCCCn4cc(-c5cnc6ccc(C7CCOCC7)cc6n5)cn4)cc3C2=O)C(=O)N1 (centres unmarked) [GS-542, 2-(2,6-Dioxopiperidin-3-yl)-5-((6-(4-(7-(tetrahydro-2H-pyran-4-yl)quinoxalin-2-yl)-1H-pyrazol-1-yl)hexyl)amino)isoindoline-1,3-dione] | 10 to 100 nM | < 10 nM | 10 to 100 nM | < 10 nM | – | – | – | –
O=C1CCC(N2C(=O)c3ccc(NCCCCC(=O)N4CCC(n5cc(-c6cnc7ccc(N8CCNCC8)cc7n6)cn5)CC4)cc3C2=O)C(=O)N1 (centres unmarked) [GS-543, 2-(2,6-Dioxopiperidin-3-yl)-5-((5-oxo-5-(4-(4-(7-(piperazin-1-yl)quinoxalin-2-yl)-1H-pyrazol-1-yl)piperidin-1-yl)pentyl)amino)isoindoline-1,3-dione] | 10 to 100 nM | < 10 nM | 10 to 100 nM | < 10 nM | – | – | – | –
O=C1CCC(N2C(=O)c3ccc(NCCCCC(=O)N4CCC(n5cc(-c6cnc7ccc(C8=CCNCC8)cc7n6)cn5)CC4)cc3C2=O)C(=O)N1 (centres unmarked) [GS-544, 2-(2,6-Dioxopiperidin-3-yl)-5-((5-oxo-5-(4-(4-(7-(1,2,3,6-tetrahydropyridin-4-yl)quinoxalin-2-yl)-1H-pyrazol-1-yl)piperidin-1-yl)pentyl)amino)isoindoline-1,3-dione] | 100 to 1000 nM | < 10 nM | 100 to 1000 nM | < 10 nM | – | – | – | –
O=C1CCC(N2C(=O)c3ccc(NCCCCC(=O)N4CCC(c5cnc6ccccc6n5)CC4)cc3C2=O)C(=O)N1 (centres unmarked) [GS-545, 2-(2,6-Dioxopiperidin-3-yl)-5-((5-oxo-5-(4-(quinoxalin-2-yl)piperidin-1-yl)pentyl)amino)isoindoline-1,3-dione] | > 1000 nM | 100 to 1000 nM | 100 to 1000 nM | 10 to 100 nM | – | – | – | –
Cc1cn(CCCCCCNc2ccc3c(c2)C(=O)N(C2CCC(=O)NC2=O)C3=O)nc1-c1cnc2ccccc2n1 (centres unmarked) [GS-546, 2-(2,6-Dioxopiperidin-3-yl)-5-((6-(4-methyl-3-(quinoxalin-2-yl)-TH-pyrazol-1-yl)hexyl)amino)isoindoline-1,3-dione] | > 1000 nM | 100 to 1000 nM | > 1000 nM | 10 to 100 nM | – | – | – | –
O=C1CCC(N2C(=O)c3ccc(NCCCCCCn4cc(-c5nc6ccccc6nc5C(F)F)cn4)cc3C2=O)C(=O)N1 (centres unmarked) [GS-547, 5-((6-(4-(3-(Difluoromethyl)quinoxalin-2-yl)-1H-pyrazol-1-yl)hexyl)amino)-2-(2,6-dioxopiperidin-3-yl)isoindoline-1,3-dione] | – | – | – | – | 100 to 1000 nM | 10 to 100 nM | > 1000 nM | 10 to 100 nM
CN1CCC(c2ccc3ncc(-c4cnn(CCCCCCNc5ccc6c(c5)C(=O)N(C5CCC(=O)NC5=O)C6=O)c4)nc3c2)CC1 (centres unmarked) [GS-548, 2-(2,6-Dioxopiperidin-3-yl)-5-((6-(4-(7-(1-methylpiperidin-4-yl)quinoxalin-2-yl)-1H-pyrazol-1-yl)hexyl)amino)isoindoline-1,3-dione] | 100 to 1000 nM | < 10 nM | 100 to 1000 nM | < 10 nM | – | – | – | –
Cc1nn(CCCCCCNc2ccc3c(c2)C(=O)N(C2CCC(=O)NC2=O)C3=O)c(C)c1-c1ccc2ccccc2n1 (centres unmarked) [GS-549, 5-((6-(3,5-Dimethyl-4-(quinolin-2-yl)-1H-pyrazol-1-yl)hexyl)amino)-2-(2,6-dioxopiperidin-3-yl)isoindoline-1,3-dione] | 100 to 1000 nM | 10 to 100 nM | 100 to 1000 nM | < 10 nM | – | – | – | –
O=C1CCC(N2C(=O)c3ccc(NCCCCCCn4cc(-c5cnc6ccccc6n5)c(C(F)(F)F)n4)cc3C2=O)C(=O)N1 (centres unmarked) [GS-550, 2-(2,6-Dioxopiperidin-3-yl)-5-((6-(4-(quinoxalin-2-yl)-3-(trifluoromethyl)-1H-pyrazol-1-yl)hexyl)amino)isoindoline-1,3-dione] | 100 to 1000 nM | 10 to 100 nM | 100 to 1000 nM | 10 to 100 nM | – | – | – | –
O=C1CCC(N2C(=O)c3ccc(NCCCCC(F)(F)Cn4cc(-c5cnc6ccccc6n5)cn4)cc3C2=O)C(=O)N1 (centres unmarked) [GS-551, 5-((5,5-Difluoro-6-(4-(quinoxalin-2-yl)-1H-pyrazol-1-yl)hexyl)amino)-2-(2,6-dioxopiperidin-3-yl)isoindoline-1,3-dione] | – | – | – | – | > 1000 nM | 100 to 1000 nM | > 1000 nM | 10 to 100 nM
O=C1CCC(N2C(=O)c3ccc(NCCCCCCn4cc(-c5cnc6ccccc6n5)c(C5CC5)n4)cc3C2=O)C(=O)N1 (centres unmarked) [GS-552, 5-((6-(3-Cyclopropyl-4-(quinoxalin-2-yl)-1H-pyrazol-1-yl)hexyl)amino)-2-(2,6-dioxopiperidin-3-yl)isoindoline-1,3-dione] | 100 to 1000 nM | 10 to 100 nM | 100 to 1000 nM | < 10 nM | – | – | – | –
O=C1CCC(N2C(=O)c3ccc(NCCCCCCn4ncc(-c5cnc6ccccc6n5)c4C4CC4)cc3C2=O)C(=O)N1 (centres unmarked) [GS-553, 5-((6-(5-cyclopropyl-4-(quinoxalin-2-yl)-1H-pyrazol-1-yl)hexyl)amino)-2-(2,6-dioxopiperidin-3-yl)isoindoline-1,3-dione] | > 1000 nM | 10 to 100 nM | > 1000 nM | 10 to 100 nM | – | – | – | –
O=C1CCC(N2C(=O)c3ccc(NCCCCCCn4nc(C(F)(F)F)c(-c5cnc6ccccc6n5)c4C(F)(F)F)cc3C2=O)C(=O)N1 (centres unmarked) [GS-554, 2-(2,6-Dioxopiperidin-3-yl)-5-((6-(4-(quinoxalin-2-yl)-3,5-bis(trifluoromethyl)-1H-pyrazol-1-yl)hexyl)amino)isoindoline-1,3-dione] | 100 to 1000 nM | 10 to 100 nM | > 1000 nM | 10 to 100 nM | – | – | – | –
O=C1CCC(N2C(=O)c3ccc(NCCCCCCn4cc(-c5cnc6cccc(C(F)(F)F)c6n5)cn4)cc3C2=O)C(=O)N1 (centres unmarked) [GS-555, 2-(2,6-Dioxopiperidin-3-yl)-5-((6-(4-(8-(trifluoromethyl)quinoxalin-2-yl)-1H-pyrazol-1-yl)hexyl)amino)isoindoline-1,3-dione] | 100 to 1000 nM | 10 to 100 nM | 100 to 1000 nM | < 10 nM | – | – | – | –
O=C1CCC(N2C(=O)c3ccc(NC4CC(CCCn5cc(-c6cnc7ccccc7n6)cn5)C4)cc3C2=O)C(=O)N1 (centres unmarked) [GS-556] | > 1000 nM | > 1000 nM | > 1000 nM | > 1000 nM | – | – | – | –
O=C1CCC(N2C(=O)c3ccc(NCCCCCCn4ncc(-c5cnc6ccccc6n5)c4C(F)F)cc3C2=O)C(=O)N1 (centres unmarked) [GS-557, 5-((6-(5-(Difluoromethyl)-4-(quinoxalin-2-yl)-1H-pyrazol-1-yl)hexyl)amino)-2-(2,6-dioxopiperidin-3-yl)isoindoline-1,3-dione] | 10 to 100 nM | < 10 nM | 10 to 100 nM | < 10 nM | – | – | – | –
O=C1CCC(N2C(=O)c3ccc(NCCC4CC(Cn5cc(-c6cnc7ccccc7n6)cn5)C4)cc3C2=O)C(=O)N1 (centres unmarked) [GS-558, 2-(2,6-Dioxopiperidin-3-yl)-5-((2-(3-((4-(quinoxalin-2-yl)-1H-pyrazol-1-yl)methyl)cyclobutyl)ethyl)amino)isoindoline-1,3-dione] | – | – | – | – | 100 to 1000 nM | 100 to 1000 nM | > 1000 nM | 10 to 100 nM
